Reference: US20210038681A1, “PHARMACEUTICAL COMPOSITION FOR TREATING VIRAL HEPATITIS C” (priority 2018, published 2021)
Read-outs that look alike come from different tables or passages of the source.

Columns and labels:
[1] = system: HCV 3a NS5A Y93H replicon cells; assay type: cell-based; details: read-out: Mean EC50 (nM) ±SD; HCV genotype 3a, variant Y93H*; replicon cells from cell passage assay
[2] = system: HCV genotype 5a NS5A replicon cells; assay: Standard 3-day HCV replicon assay; assay type: cell-based; details: Hepatitis C virus, 72 h
[3] = in vitro; details: dog, MDCK cells (uninfected)
[4] = system: human rhinovirus 16 (HRV-16); assay: Virus-cell protection assay; assay type: cell-based; details: Rhinovirus A, HRV16; Virus HRV-16, cell line HeLa
[5] = system: HCV 1a Wild-type replicon; assay: microbe, parasite or virus in culture; details: Hepatitis C virus, Huh-7, read-out: Mean EC50 (nM) ± SD
[6] = system: HCV genotype 1a replicon cells; assay: Standard 3-day HCV replicon assay; assay type: cell-based; details: Hepatitis C virus, 72 h, 3 days, 5% fetal bovine serum
[7] = system: HCV genotype 7a NS5A replicon cells; assay: Standard 3-day HCV replicon assay; assay type: cell-based; details: Hepatitis C virus, 72 h
[8] = system: MDCK cells; details: MDCK cells, 10,000 nM
[9] = system: HCV genotype 3a NS5A replicon cells; assay: Standard 3-day HCV replicon assay; assay type: cell-based; details: Hepatitis C virus, 72 h
[10] = in vitro; details: human, HeLa cells (uninfected; HeLa H1A in the text)
[11] = system: BVDV, HRV-16, Flu-B; assay: Virus-cell protection assay, all tested viruses; assay type: cell-based; details: Bovine viral diarrhea virus isolates and strains, HRV16, all of BVDV, read-out: EC50 against any of the tested viruses
[12] = system: Wild-type HCV 1b replicon; assay type: cell-based; details: Hepatitis C virus, read-out: Mean EC50 (nM)
[13] = system: influenza B virus (Flu-B); assay: Virus-cell protection assay; assay type: cell-based; details: cell line MDCK
[14] = system: HCV genotype 4a NS5A replicon cells; assay: Standard 3-day HCV replicon assay; assay type: cell-based; details: Hepatitis C virus, 72 h
[15] = system: HCV genotype 1b replicon cells; assay: Standard 3-day HCV replicon assay; assay type: cell-based; details: Hepatitis C virus, 72 h, 3 days, 5% fetal bovine serum
[16] = system: HCV genotype 2a NS5A replicon cells; assay: Standard 3-day HCV replicon assay; assay type: cell-based; details: Hepatitis C virus, 72 h
[17] = system: bovine viral diarrhea virus (BVDV); assay: Virus-cell protection assay; assay type: cell-based; details: Bovine viral diarrhea virus isolates and strains, cell line BT
[18] = system: HCV 4a NS5A L30H + Y93H replicon; assay type: cell-based; details: HCV genotype 4a, variant L30H + Y93H; EC50 relative to WT
Excerpt: (§1) The susceptibility degrees of WT replicons in the transient assay were similar to the values obtained from a cell assay using the stable HCV replicons.

[19] = system: HCV 1b L31V + Y93H replicon; assay type: cell-based; details: HCV genotype 1b, variant L31V + Y93H; EC50 relative to WT
Excerpt: as §1

[20] = system: HCV 2a NS5A F28S replicon; assay type: cell-based; details: HCV genotype 2a, variant F28S; EC50 relative to WT
Excerpt: as §1

[21] = system: HCV 6a NS5A F28S replicon; assay type: cell-based; details: HCV genotype 6a, variant F28S; EC50 relative to WT
Excerpt: as §1

[22] = system: HCV genotype 6a NS5A replicon cells; assay: Standard 3-day HCV replicon assay; assay type: cell-based; details: Hepatitis C virus, 72 h
[23] = system: HCV 4a NS5A L30H replicon; assay: microbe, parasite or virus in culture; assay type: cell-based
Excerpt: as §1

[24] = system: HCV 5a NS5A L31F replicon; assay: microbe, parasite or virus in culture; assay type: cell-based
Excerpt: as §1

[25] = system: HCV 1a Q30K replicon; assay: microbe, parasite or virus in culture; assay type: cell-based
Excerpt: as §1

[26] = system: HCV 6a NS5A WT replicon; assay: microbe, parasite or virus in culture; assay type: cell-based
Excerpt: as §1

[27] = system: HCV 2a NS5A WT replicon; assay: microbe, parasite or virus in culture; assay type: cell-based
Excerpt: as §1

[28] = system: HCV 1b L31V replicon; assay: microbe, parasite or virus in culture; assay type: cell-based
Excerpt: as §1

[29] = system: HCV 3a NS5A WT replicon; assay: microbe, parasite or virus in culture; assay type: cell-based
Excerpt: as §1

[30] = system: HCV 4a NS5A Y93H replicon; assay: microbe, parasite or virus in culture; assay type: cell-based
Excerpt: as §1

[31] = system: HCV 1a M28T replicon; assay: microbe, parasite or virus in culture; assay type: cell-based
Excerpt: as §1

[32] = system: HCV 2a NS5A Y93H replicon; assay: microbe, parasite or virus in culture; assay type: cell-based
Excerpt: as §1

[33] = system: HCV 1b L31F replicon; assay: microbe, parasite or virus in culture; assay type: cell-based
Excerpt: as §1

[34] = system: HCV 1b Y93H replicon; assay: microbe, parasite or virus in culture; assay type: cell-based
Excerpt: as §1

[35] = system: HCV 4a NS5A P58L replicon; assay: microbe, parasite or virus in culture; assay type: cell-based
Excerpt: as §1

[36] = system: HCV 5a NS5A WT replicon; assay: microbe, parasite or virus in culture; assay type: cell-based
Excerpt: as §1

[37] = system: HCV 1a Y93H replicon; assay: microbe, parasite or virus in culture; assay type: cell-based
Excerpt: as §1

[38] = system: HCV 1b L31F + Y93H replicon; assay: microbe, parasite or virus in culture; assay type: cell-based
Excerpt: as §1

[39] = system: HCV 1a WT replicon; assay: microbe, parasite or virus in culture; assay type: cell-based
Excerpt: as §1

[40] = system: HCV 1a Y93N replicon; assay: microbe, parasite or virus in culture; assay type: cell-based
Excerpt: as §1

[41] = system: HCV 1a Q30R replicon; assay: microbe, parasite or virus in culture; assay type: cell-based
Excerpt: as §1

[42] = system: HCV 1a Y93C replicon; assay: microbe, parasite or virus in culture; assay type: cell-based
Excerpt: as §1

[43] = system: HCV 1b WT replicon; assay: microbe, parasite or virus in culture; assay type: cell-based
Excerpt: as §1

[44] = system: HCV 4a NS5A WT replicon; assay: microbe, parasite or virus in culture; assay type: cell-based
Excerpt: as §1

[45] = in vitro; details: cattle, BT cells (uninfected)
[46] = system: HeLa cells; details: HeLa H1A cells, 10,000 nM
[47] = Hepatitis C virus, read-out: Mean EC50 (nM) ±SD

With `COC(=O)N[C@H](C(=O)N1CCC[C@H]1c1ncc(-c2ccc3cc(-c4ccc5nc([C@@H]6CCCN6C(=O)[C@@H](NC(=O)OC)C(C)C)[nH]c5c4)ccc3c2)[nH]1)C(C)C` [ASC16, Ravidasvir] the EC50 [1] was 1040 nM, the EC50 [2] was 0.03 ng/mL and the EC90 [2] was 0.1 ng/mL. The EC50 ([2]; read-out: EC50 (nM) Mean ± SD) was 0.04 ± 0.01 nM, the EC90 ([2]; read-out: EC90 (nM) Mean ± SD) was 0.12 ± 0.02 nM and the CC50 [3] was greater than 5000 nM. The EC50 [4] was greater than 3300 nM, the EC50 [5] was 0.03 nM and the EC50 ([6]; read-out: EC50) was 0.09 ng/mL. The EC50 ([6]; read-out: EC50 (nM) Mean ± SD) was 0.12 ± 0.01 nM, the EC90 ([6]; read-out: EC90) was 0.24 ng/mL and the EC90 ([6]; read-out: EC90 (nM) Mean ± SD) was 0.32 ± 0.02 nM. It also gave an EC50 [7] of 0.06 ng/mL, an EC90 [7] of 0.17 ng/mL and an EC50 ([7]; read-out: EC50 (nM) Mean ± SD) of 0.07 ± 0.02 nM. The EC90 ([7]; read-out: EC90 (nM) Mean ± SD) was 0.2 ± 0.05 nM, the “cytotoxicity at the highest test concentration” value [8] was “significant cytotoxicity” and the EC50 [9] was 0.95 ng/mL. It also gave an EC90 [9] of 2.8 ng/mL, an EC50 ([9]; read-out: EC50 (nM) Mean ± SD) of 1.14 ± 0.3 nM and an EC90 ([9]; read-out: EC90 (nM) Mean ± SD) of 3.35 ± 1.3 nM. For the same molecule, the CC50 [10] was greater than 3300 nM, the EC50 [11] was greater than 3300 nM and the EC50 [12] was 0.01 nM. For the same molecule, the EC50 [13] was greater than 5000 nM, the EC50 [14] was 0.04 ng/mL and the EC90 [14] was 0.11 ng/mL. For the same molecule, the EC50 ([14]; read-out: EC50 (nM) Mean ± SD) was 0.05 ± 0.01 nM, the EC90 ([14]; read-out: EC90 (nM) Mean ± SD) was 0.13 ± 0.015 nM and the EC50 ([15]; read-out: EC50) was 0.015 ng/mL. The EC50 ([15]; read-out: EC50 (nM) Mean ± SD) was 0.02 ± 0.002 nM, the EC90 ([15]; read-out: EC90) was 0.02 ng/mL and the EC90 ([15]; read-out: EC90 (nM) Mean ± SD) was 0.03 ± 0.004 nM. It also gave an EC50 [16] of 0.12 ng/mL, an EC90 [16] of 0.38 ng/mL and an EC50 ([16]; read-out: EC50 (nM) Mean ± SD) of 0.14 ± 0.03 nM. For the same molecule, the EC90 ([16]; read-out: EC90 (nM) Mean ± SD) was 0.45 ± 0.1 nM, the EC50 [17] was greater than 10000 nM and the Fold change [18] was 57,587. For the same molecule, the Fold change [19] was 37,231, the Fold change [20] was 4,575 and the Fold change [21] was 2,146. The EC50 [22] was 0.25 ng/mL, the EC90 [22] was 0.92 ng/mL and the EC50 ([22]; read-out: EC50 (nM) Mean ± SD) was 0.3 ± 0.1 nM. The EC90 ([22]; read-out: EC90 (nM) Mean ± SD) was 1.1 ± 0.3 nM, the Fold change ([23]; HCV genotype 4a, variant L30H, EC50 relative to WT) was 887 and the EC50 [23, 47] was 14 ± 0.8 nM. For the same molecule, the Fold change ([24]; HCV genotype 5a, variant L31F, EC50 relative to WT) was 76, the EC50 [24, 47] was 6.1 ± 0.8 nM and the Fold change ([25]; HCV genotype 1a, variant Q30K, EC50 relative to WT) was 2,965. It also gave an EC50 [25, 47] of 87 ± 17 nM, a Fold change ([26]; HCV genotype 6a, WT, EC50 relative to WT) of 1 and an EC50 [26, 47] of 0.2 ± 0.04 nM. The Fold change ([27]; HCV genotype 2a, WT, EC50 relative to WT) was 1, the EC50 [27, 47] was 0.12 ± 0.06 nM and the Fold change ([28]; HCV genotype 1b, variant L31V, EC50 relative to WT) was 85. For the same molecule, the EC50 [28, 47] was 0.9 ± 0.1 nM, the Fold change ([29]; HCV genotype 3a, WT, EC50 relative to WT) was 1 and the EC50 [29, 47] was 1.2 nM. The Fold change ([30]; HCV genotype 4a, variant Y93H, EC50 relative to WT) was 210, the EC50 [30, 47] was 3.2 ± 0.2 nM and the Fold change ([31]; HCV genotype 1a, variant M28T, EC50 relative to WT) was 189. For the same molecule, the EC50 [31, 47] was 5.5 ± 2.8 nM, the Fold change ([32]; HCV genotype 2a, variant Y93H, EC50 relative to WT) was 816 and the EC50 [32, 47] was 96 ± 23 nM. It also gave a Fold change ([33]; HCV genotype 1b, variant L31F, EC50 relative to WT) of 4.0, an EC50 [33, 47] of 0.05 ± 0.009 nM and a Fold change ([34]; HCV genotype 1b, variant Y93H, EC50 relative to WT) of 81. The EC50 [34, 47] was 0.9 ± 0.06 nM, the Fold change ([35]; HCV genotype 4a, variant P58L, EC50 relative to WT) was 197 and the EC50 [35, 47] was 3 ± 0.09 nM. For the same molecule, the Fold change ([36]; HCV genotype 5a, WT, EC50 relative to WT) was 1, the EC50 [36, 47] was 0.08 ± 0.04 nM and the Fold change ([37]; HCV genotype 1a, variant Y93H, EC50 relative to WT) was 1,630. The EC50 [37, 47] was 48 ± 1 nM, the Fold change ([38]; HCV genotype 1b, variant L31F + Y93H, EC50 relative to WT) was 2,541 and the EC50 [38, 47] was 28 ± 5.4 nM. For the same molecule, the Fold change ([39]; HCV genotype 1a, WT, EC50 relative to WT) was 1, the EC50 [39, 47] was 0.03 ± 0.002 nM and the Fold change ([40]; HCV genotype 1a, variant Y93N, EC50 relative to WT) was 3,876. It also gave an EC50 ([40]; Hepatitis C virus, read-out: Mean EC50 (nM) ±SD, HCV genotype 1a, variant Y93N) greater than 100 nM, an EC50 ([40]; read-out: Mean EC50 (nM) ±SD, HCV genotype 1a, variant Y93N) of 113 ± 7.3 nM and a Fold change ([41]; HCV genotype 1a, variant Q30R, EC50 relative to WT) of 168. The EC50 [41, 47] was 4.9 ± 1.3 nM, the Fold change ([42]; HCV genotype 1a, variant Y93C, EC50 relative to WT) was 169 and the EC50 [42, 47] was 5 ± 0.4 nM. The Fold change ([43]; HCV genotype 1b, WT, EC50 relative to WT) was 1, the EC50 [43, 47] was 0.01 ± 0.003 nM and the Fold change ([44]; HCV genotype 4a, WT, EC50 relative to WT) was 1. For the same molecule, the EC50 [44, 47] was 0.02 ± 0.004 nM, the CC50 [45] was greater than 10000 nM and the “cytotoxicity at the highest test concentration” value [46] was “significant cytotoxicity”.
